# Reference: patent publication US7056934B2, “Nicotinamide derivatives useful as PDE4 inhibitors” (Pfizer Inc, priority 2003, dated 2006)
# Tested on: human peripheral blood mononuclear cells
# Experiment: Inhibition of LPS-stimulated TNFα release from human peripheral blood mononuclear cells (TNFα screen)
# Type: cell-based
# Conditions: LPS-stimulated human PBMC, 18 hours incubation, TNFα in supernatant by ELISA
# Method: Venous blood is collected from healthy volunteers and the mononuclear cells purified by centrifugation through Histopaque (Ficoll) cushions. TNFα production from these cells is stimulated by addition of lipopolysaccharide. After 18 hours incubation in the presence of LPS, the cell supernatant is removed and the concentration of TNFα in the supernatant determined by ELISA.
row,Compound,IC50
1,Syn-5-Fluoro-N-(4-{[1-(2-hydroxy-ethyl)-5-methyl-1H-pyrazole-3-carbonyl]-amino}-cyclohexyl)-2-(3-methylsulfanyl-phenoxy)-nicotinamide [Example 8],0.2 nM
2,Syn-5-Fluoro-N-{4-[2-(2-hydroxy-ethoxy)-5-methyl-benzoylamino]-cyclohexyl}-2-(3-methylsulfanyl-phenoxy)-nicotinamide [Example 11],0.8 nM
3,Syn-N-(4-{[5-Ethyl-1-(2-hydroxy-ethyl)-1H-pyrazole-3-carbonyl]-amino}-cyclohexyl)-5-fluoro-2-(3-methylsulfanyl-phenoxy)-nicotinamide [Example 17],0.05 nM
4,"CSc1cccc(Oc2ncc(F)cc2C(=O)N[C@H]2CC[C@@H](NC(=O)c3cn(CCO)cn3)CC2)c1 [Example 3, Syn-5-Fluoro-N-(4-{[1-(2-hydroxy-ethyl)-1H-imidazole-4-carbonyl]-amino}-cyclohexyl)-2-(3-methylsulfanyl-phenoxy)-nicotinamide]",1.6 nM
5,Syn-5-Fluoro-N-(4-{[1-(2-hydroxy-ethyl)-1H-pyrazole-3-carbonyl]-amino}-cyclohexyl)-2-(3-methylsulfanyl-phenoxy)-nicotinamide [Example 5],0.24 nM
6,"CSc1cccc(Oc2ncc(F)cc2C(=O)N[C@H]2CC[C@@H](NC(=O)c3ccc(CO)cc3O)CC2)c1 [Example 2, Syn-5-Fluoro-N-[4-(2-hydroxy-4-hydroxymethyl-benzoylamino)-cyclohexyl]-2-(3-methylsulfanyl-phenoxy)-nicotinamide]",0.6 nM
7,"CSc1cc(Oc2ncc(F)cc2C(=O)N[C@H]2CC[C@@H](NC(=O)c3ccccc3OCCO)CC2)ccc1F [Example 9, Syn-5-Fluoro-2-(4-fluoro-3-methylsulfanyl-phenoxy)-N-{4-[2-(2-hydroxy-ethoxy)-benzoylamino]-cyclohexyl}-nicotinamide]",0.36 nM
8,"CSc1cccc(Oc2ncc(F)cc2C(=O)N[C@H]2CC[C@@H](NC(=O)c3cc(C(C)C)n(CCO)n3)CC2)c1 [Example 10, Syn-5-Fluoro-N-(4-{[1-(2-hydroxy-ethyl)-5-isopropyl-1H-pyrazole-3-carbonyl]-amino}-cyclohexyl)-2-(3-methylsulfanyl-phenoxy)-nicotinamide]",2.5 nM
9,Syn-5-Fluoro-N-{4-[2-(2-hydroxy-ethoxy)-4-methyl-benzoylamino]-cyclohexyl}-2-(3-methylsulfanyl-phenoxy)-nicotinamide [Example 12],0.3 nM
10,Syn-5-Fluoro-N-(4-{[1-(2-hydroxy-ethyl)-1H-pyrazole-4-carbonyl]-amino}-cyclohexyl)-2-(3-methylsulfanyl-phenoxy)-nicotinamide [Example 7],4.6 nM
11,Syn-N-{4-[4-Chloro-2-(2-hydroxy-ethoxy)-benzoylamino]-cyclohexyl}-5-fluoro-2-(3-methylsulfanyl-phenoxy)-nicotinamide [Example 15],1.6 nM
12,Syn-5-Fluoro-N-{4-[2-(2-hydroxy-ethoxy)-3-methyl-benzoylamino]-cyclohexyl}-2-(3-methylsulfanyl-phenoxy)-nicotinamide [Example 13],0.07 nM
13,Syn-5-Chloro-N-{4-[2-(2-hydroxy-ethoxy)-benzoylamino]-cyclohexyl}-2-(3-methylsulfanyl-phenoxy)-nicotinamide [Example 18],0.15 nM
14,Syn-N-{4-[5-Chloro-2-(2-hydroxy-ethoxy)-benzoylamino]-cyclohexyl}-5-fluoro-2-(3-methylsulfanyl-phenoxy)-nicotinamide [Example 14],0.6 nM
